# Assay results as given in US20230085307A1, “PYRIDAZINONE COMPOUND AND HERBICIDE” (NISSAN CHEMICAL CORPORATION, priority 2019, published 2023).
# Test system: barnyard grass
# Assay: Test Example 3: herbicidal effect by foliage application, Wagner pot (Table 18, symbol H)
# Assay type: in vivo, barnyard grass (Echinochloa crus-galli)
# Settings: amount of applied herbicide 320 g/ha
# In short: (§1)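 Plants were sown in alluvial soil held under 0.1–0.5 cm standing water and grown 14 days in a greenhouse at 25–30 °C. An emulsifiable formulation, water-diluted to the set dose, was then sprayed onto the foliage, and effects were scored three weeks later using previously defined criteria.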
row,Compound,herbicidal effect on H: barnyard grass
1,CCCCOc1cccc(-c2sc3ccc(F)cc3c2-c2c(OC(=O)CCC)c(C)nn(C)c2=O)c1 [2-220],5 (Herbicidal rate of 90% or more (almost completely withered))

# Test system: Chinese sprangletop
# Assay: Test Example 3: herbicidal effect by foliage application, Wagner pot (Table 18, symbol D)
# Assay type: in vivo, chinese sprangletop (Leptochloa chinensis)
# Settings: amount of applied herbicide 320 g/ha
# In short: as §1
row,Compound,herbicidal effect on D: Chinese sprangletop
1,CCCCOc1cccc(-c2sc3ccc(F)cc3c2-c2c(OC(=O)CCC)c(C)nn(C)c2=O)c1 [2-220],3 (Herbicidal rate of 40% or more and less than 70%)

# Test system: rice flat sedge
# Assay: Test Example 3: herbicidal effect by foliage application, Wagner pot (Table 18, symbol E)
# Assay type: in vivo, rice flat sedge (Cyperus iria)
# Settings: amount of applied herbicide 320 g/ha
# In short: as §1
row,Compound,herbicidal effect on E: rice flat sedge
1,CCCCOc1cccc(-c2sc3ccc(F)cc3c2-c2c(OC(=O)CCC)c(C)nn(C)c2=O)c1 [2-220],3 (Herbicidal rate of 40% or more and less than 70%)

# Test system: southern crabgrass
# Assay: Test Example 4: herbicidal effect by soil treatment (Table 19, symbol F)
# Assay type: in vivo, southern crabgrass (Digitaria ciliaris)
# Settings: amount of applied herbicide 320 g/ha
# In short: (§2)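 Soil-surface application: an emulsion agent diluted with water to the predetermined dose is sprayed uniformly over seeds lying under roughly 1.5 cm of sterilized diluvial soil. Boxes stay in a greenhouse at 25° C. to 30° C. Three weeks later, each species is graded on previously defined criteria.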
row,Compound,"F: southern crabgrass, herbicidal effect rating"
1,CCCCOc1cccc(-c2sc3ccc(F)cc3c2-c2c(OC(=O)CCC)c(C)nn(C)c2=O)c1 [2-220],0 (Herbicidal rate of 5% or less (almost no effect))

# Test system: green foxtail
# Assay: Test Example 4: herbicidal effect by soil treatment (Table 19, symbol G)
# Assay type: in vivo, green foxtail (Setaria viridis)
# Settings: amount of applied herbicide 320 g/ha
# In short: as §2
row,Compound,"G: green foxtail, herbicidal effect rating"
1,CCCCOc1cccc(-c2sc3ccc(F)cc3c2-c2c(OC(=O)CCC)c(C)nn(C)c2=O)c1 [2-220],0 (Herbicidal rate of 5% or less (almost no effect))

# Test system: barnyard grass
# Assay: Test Example 4: herbicidal effect by soil treatment (Table 19, symbol H)
# Assay type: in vivo, barnyard grass (Echinochloa crus-galli)
# Settings: amount of applied herbicide 320 g/ha
# In short: as §2
row,Compound,"H: barnyard grass, herbicidal effect rating"
1,CCCCOc1cccc(-c2sc3ccc(F)cc3c2-c2c(OC(=O)CCC)c(C)nn(C)c2=O)c1 [2-220],1 (Herbicidal rate of 5% or more and less than 20%)

# Test system: wild oat
# Assay: Test Example 4: herbicidal effect by soil treatment (Table 19, symbol I)
# Assay type: in vivo, wild oat (Avena fatua)
# Settings: amount of applied herbicide 320 g/ha
# In short: as §2
row,Compound,"I: wild oat, herbicidal effect rating"
1,CCCCOc1cccc(-c2sc3ccc(F)cc3c2-c2c(OC(=O)CCC)c(C)nn(C)c2=O)c1 [2-220],0 (Herbicidal rate of 5% or less (almost no effect))

# Test system: blackgrass
# Assay: Test Example 4: herbicidal effect by soil treatment (Table 19, symbol J)
# Assay type: in vivo, blackgrass (Alopecurus myosuroides)
# Settings: amount of applied herbicide 320 g/ha
# In short: as §2
row,Compound,"J: blackgrass, herbicidal effect rating"
1,CCCCOc1cccc(-c2sc3ccc(F)cc3c2-c2c(OC(=O)CCC)c(C)nn(C)c2=O)c1 [2-220],0 (Herbicidal rate of 5% or less (almost no effect))

# Test system: Italian ryegrass
# Assay: Test Example 4: herbicidal effect by soil treatment (Table 19, symbol K)
# Assay type: in vivo, Italian ryegrass (Lolium multiflorum)
# Settings: amount of applied herbicide 320 g/ha
# In short: as §2
row,Compound,"K: Italian ryegrass, herbicidal effect rating"
1,CCCCOc1cccc(-c2sc3ccc(F)cc3c2-c2c(OC(=O)CCC)c(C)nn(C)c2=O)c1 [2-220],0 (Herbicidal rate of 5% or less (almost no effect))

# Test system: windgrass
# Assay: Test Example 4: herbicidal effect by soil treatment (Table 19, symbol L)
# Assay type: in vivo, windgrass (Apera spica-venti)
# Settings: amount of applied herbicide 320 g/ha
# In short: as §2
row,Compound,"L: windgrass, herbicidal effect rating"
1,CCCCOc1cccc(-c2sc3ccc(F)cc3c2-c2c(OC(=O)CCC)c(C)nn(C)c2=O)c1 [2-220],0 (Herbicidal rate of 5% or less (almost no effect))

# Test system: velvetleaf
# Assay: Test Example 4: herbicidal effect by soil treatment (Table 19, symbol M)
# Assay type: in vivo, velvetleaf (Abutilon theophrasti)
# Settings: amount of applied herbicide 320 g/ha
# In short: as §2
row,Compound,"M: velvetleaf, herbicidal effect rating"
1,CCCCOc1cccc(-c2sc3ccc(F)cc3c2-c2c(OC(=O)CCC)c(C)nn(C)c2=O)c1 [2-220],0 (Herbicidal rate of 5% or less (almost no effect))

# Test system: redroot pigweed
# Assay: Test Example 4: herbicidal effect by soil treatment (Table 19, symbol N)
# Assay type: in vivo, redroot pigweed (Amaranthus retroflexus)
# Settings: amount of applied herbicide 320 g/ha
# In short: as §2
row,Compound,"N: redroot pigweed, herbicidal effect rating"
1,CCCCOc1cccc(-c2sc3ccc(F)cc3c2-c2c(OC(=O)CCC)c(C)nn(C)c2=O)c1 [2-220],4 (Herbicidal rate of 70% or more and less than 90%)

# Test system: lambsquarters
# Assay: Test Example 4: herbicidal effect by soil treatment (Table 19, symbol O)
# Assay type: in vivo, lambsquarters (Chenopodium album)
# Settings: amount of applied herbicide 320 g/ha
# In short: as §2
row,Compound,"O: lambsquarters, herbicidal effect rating"
1,CCCCOc1cccc(-c2sc3ccc(F)cc3c2-c2c(OC(=O)CCC)c(C)nn(C)c2=O)c1 [2-220],0 (Herbicidal rate of 5% or less (almost no effect))

# Test system: chickweed
# Assay: Test Example 4: herbicidal effect by soil treatment (Table 19, symbol P)
# Assay type: in vivo, common chickweed (Stellaria media)
# Settings: amount of applied herbicide 320 g/ha
# In short: as §2
row,Compound,"P: chickweed, herbicidal effect rating"
1,CCCCOc1cccc(-c2sc3ccc(F)cc3c2-c2c(OC(=O)CCC)c(C)nn(C)c2=O)c1 [2-220],0 (Herbicidal rate of 5% or less (almost no effect))

# Test system: persian speedwell
# Assay: Test Example 4: herbicidal effect by soil treatment (Table 19, symbol R)
# Assay type: in vivo, Persian speedwell (Veronica persica)
# Settings: amount of applied herbicide 320 g/ha
# In short: as §2
row,Compound,"R: persian speedwell, herbicidal effect rating"
1,CCCCOc1cccc(-c2sc3ccc(F)cc3c2-c2c(OC(=O)CCC)c(C)nn(C)c2=O)c1 [2-220],0 (Herbicidal rate of 5% or less (almost no effect))

# Test system: southern crabgrass
# Assay: Test Example 5: herbicidal effect by foliage application, plastic box (Table 20, symbol F)
# Assay type: in vivo, southern crabgrass (Digitaria ciliaris)
# Settings: foliage application, 320 g/ha, evaluated three weeks after application
# In short: (§3)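 Sow seeds spot-wise in sterilized diluvial soil; cover with ~1.5 cm soil. Grow 14 days in greenhouse, 25° C. to 30° C. Spray foliage with emulsion diluted to predetermined amount. Rate effect after 3 weeks.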
row,Compound,herbicidal effect on F: southern crabgrass (criteria 0-5)
1,CCCCOc1cccc(-c2sc3ccc(F)cc3c2-c2c(OC(=O)CCC)c(C)nn(C)c2=O)c1 [2-220],3 (Herbicidal rate of 40% or more and less than 70%)

# Test system: green foxtail
# Assay: Test Example 5: herbicidal effect by foliage application, plastic box (Table 20, symbol G)
# Assay type: in vivo, green foxtail (Setaria viridis)
# Settings: foliage application, 320 g/ha, evaluated three weeks after application
# In short: as §3
row,Compound,herbicidal effect on G: green foxtail (criteria 0-5)
1,CCCCOc1cccc(-c2sc3ccc(F)cc3c2-c2c(OC(=O)CCC)c(C)nn(C)c2=O)c1 [2-220],3 (Herbicidal rate of 40% or more and less than 70%)

# Test system: barnyard grass
# Assay: Test Example 5: herbicidal effect by foliage application, plastic box (Table 20, symbol H)
# Assay type: in vivo, barnyard grass (Echinochloa crus-galli)
# Settings: foliage application, 320 g/ha, evaluated three weeks after application
# In short: as §3
row,Compound,herbicidal effect on H: barnyard grass (criteria 0-5)
1,CCCCOc1cccc(-c2sc3ccc(F)cc3c2-c2c(OC(=O)CCC)c(C)nn(C)c2=O)c1 [2-220],3 (Herbicidal rate of 40% or more and less than 70%)

# Test system: wild oat
# Assay: Test Example 5: herbicidal effect by foliage application, plastic box (Table 20, symbol I)
# Assay type: in vivo, wild oat (Avena fatua)
# Settings: foliage application, 320 g/ha, evaluated three weeks after application
# In short: as §3
row,Compound,herbicidal effect on I: wild oat (criteria 0-5)
1,CCCCOc1cccc(-c2sc3ccc(F)cc3c2-c2c(OC(=O)CCC)c(C)nn(C)c2=O)c1 [2-220],0 (Herbicidal rate of 5% or less (almost no effect))

# Test system: blackgrass
# Assay: Test Example 5: herbicidal effect by foliage application, plastic box (Table 20, symbol J)
# Assay type: in vivo, blackgrass (Alopecurus myosuroides)
# Settings: foliage application, 320 g/ha, evaluated three weeks after application
# In short: as §3
row,Compound,herbicidal effect on J: blackgrass (criteria 0-5)
1,CCCCOc1cccc(-c2sc3ccc(F)cc3c2-c2c(OC(=O)CCC)c(C)nn(C)c2=O)c1 [2-220],0 (Herbicidal rate of 5% or less (almost no effect))

# Test system: Italian ryegrass
# Assay: Test Example 5: herbicidal effect by foliage application, plastic box (Table 20, symbol K)
# Assay type: in vivo, Italian ryegrass (Lolium multiflorum)
# Settings: foliage application, 320 g/ha, evaluated three weeks after application
# In short: as §3
row,Compound,herbicidal effect on K: Italian ryegrass (criteria 0-5)
1,CCCCOc1cccc(-c2sc3ccc(F)cc3c2-c2c(OC(=O)CCC)c(C)nn(C)c2=O)c1 [2-220],0 (Herbicidal rate of 5% or less (almost no effect))

# Test system: windgrass
# Assay: Test Example 5: herbicidal effect by foliage application, plastic box (Table 20, symbol L)
# Assay type: in vivo, windgrass (Apera spica-venti)
# Settings: foliage application, 320 g/ha, evaluated three weeks after application
# In short: as §3
row,Compound,herbicidal effect on L: windgrass (criteria 0-5)
1,CCCCOc1cccc(-c2sc3ccc(F)cc3c2-c2c(OC(=O)CCC)c(C)nn(C)c2=O)c1 [2-220],0 (Herbicidal rate of 5% or less (almost no effect))

# Test system: velvetleaf
# Assay: Test Example 5: herbicidal effect by foliage application, plastic box (Table 20, symbol M)
# Assay type: in vivo, velvetleaf (Abutilon theophrasti)
# Settings: foliage application, 320 g/ha, evaluated three weeks after application
# In short: as §3
row,Compound,herbicidal effect on M: velvetleaf (criteria 0-5)
1,CCCCOc1cccc(-c2sc3ccc(F)cc3c2-c2c(OC(=O)CCC)c(C)nn(C)c2=O)c1 [2-220],1 (Herbicidal rate of 5% or more and less than 20%)

# Test system: redroot pigweed
# Assay: Test Example 5: herbicidal effect by foliage application, plastic box (Table 20, symbol N)
# Assay type: in vivo, redroot pigweed (Amaranthus retroflexus)
# Settings: foliage application, 320 g/ha, evaluated three weeks after application
# In short: as §3
row,Compound,herbicidal effect on N: redroot pigweed (criteria 0-5)
1,CCCCOc1cccc(-c2sc3ccc(F)cc3c2-c2c(OC(=O)CCC)c(C)nn(C)c2=O)c1 [2-220],3 (Herbicidal rate of 40% or more and less than 70%)

# Test system: lambsquarters
# Assay: Test Example 5: herbicidal effect by foliage application, plastic box (Table 20, symbol O)
# Assay type: in vivo, lambsquarters (Chenopodium album)
# Settings: foliage application, 320 g/ha, evaluated three weeks after application
# In short: as §3
row,Compound,herbicidal effect on O: lambsquarters (criteria 0-5)
1,CCCCOc1cccc(-c2sc3ccc(F)cc3c2-c2c(OC(=O)CCC)c(C)nn(C)c2=O)c1 [2-220],3 (Herbicidal rate of 40% or more and less than 70%)

# Test system: chickweed
# Assay: Test Example 5: herbicidal effect by foliage application, plastic box (Table 20, symbol P)
# Assay type: in vivo, common chickweed (Stellaria media)
# Settings: foliage application, 320 g/ha, evaluated three weeks after application
# In short: as §3
row,Compound,herbicidal effect on P: chickweed (criteria 0-5)
1,CCCCOc1cccc(-c2sc3ccc(F)cc3c2-c2c(OC(=O)CCC)c(C)nn(C)c2=O)c1 [2-220],4 (Herbicidal rate of 70% or more and less than 90%)

# Test system: persian speedwell
# Assay: Test Example 5: herbicidal effect by foliage application, plastic box (Table 20, symbol R)
# Assay type: in vivo, Persian speedwell (Veronica persica)
# Settings: foliage application, 320 g/ha, evaluated three weeks after application
# In short: as §3
row,Compound,herbicidal effect on R: persian speedwell (criteria 0-5)
1,CCCCOc1cccc(-c2sc3ccc(F)cc3c2-c2c(OC(=O)CCC)c(C)nn(C)c2=O)c1 [2-220],4 (Herbicidal rate of 70% or more and less than 90%)
